According to article PMC9363195, “Preclinical Pharmacokinetics, Biodistribution, and Acute Toxicity Evaluation of Caerin 1.9 Peptide in Sprague Dawley Rats” (Evidence-based Complementary and Alternative Medicine : eCAM, 2022):
Peptide text beside a SMILES is read from it.

Tested on: SD rats
Experiment: Hematology and coagulation analysis in acute toxicity study
Assay type: in vivo, Sprague Dawley rats
Conditions: day 15, mean ± SD
Protocol: Forty SD rats (20 males and 20 females) were randomly divided into 4 groups (Figure 1). All rats were given F3 once on the day of the experiment.
Twelve SD rats (6 males, 6 females) were given a daily subcutaneous injection of F3 at a dose of 10.0 mg/kg for consecutive 14 days. The first day of administration was recorded as day 1.
For 14 days, the body weight was measured before F3 administration on the first day of the experiment and once a week thereafter, with additional measurements on the day before and on the day of the planned autopsy. Food intake was recorded once a week. The rats were anesthetized by inhalation of 70% CO2/30% O2 before dissection, and blood samples were taken for hematology and biochemical analysis. The collected tissue was weighed and preserved for pathological examination.
Blood smears were used to investigate the morphology of basophils (ABBASO), eosinophils (ABEOS), neutrophils (ABNEUT), monocytes (ABMONO), and lymphocytes (ABLYMP) in the peripheral blood. When white blood cell classification and reticulocyte count cannot be calculated directly by ADVIA 2120i, they were manually counted and calculated following the procedure published previously. The number of platelets was determined manually when they could not be counted mechanically because of coagulation. Wright-Giemsa staining was used to prepare blood smears for cell morphology.
Liver and renal functions were measured with special attention to alanine aminotransferase (ALT), aspartate aminotransferase (AST), alkaline phosphatase (ALP), serum creatinine, total bilirubin, and urea levels. In addition, the levels of glucose, calcium, total protein, and albumin in serum samples were measured. The blood biochemical test, hematology test, and coagulation function test were detected by Hitachi 7180 automatic biochemical analyzer, Siemens ADVIA 2120i hematology analyzer, and Stargo Emo Express Hemagglutination analyzer, respectively.

[1] = female SD rats, s.c. 10.0 mg/kg daily x14 d, n=6
[2] = female SD rats, single s.c. 1.0 mg/kg, n=5
[3] = female SD rats, single s.c. 10.0 mg/kg, n=5
[4] = female SD rats, single s.c. 100.0 mg/kg, n=5
[5] = male SD rats, s.c. 10.0 mg/kg daily x14 d, n=6
[6] = male SD rats, single s.c. 1.0 mg/kg, n=5
[7] = male SD rats, single s.c. 10.0 mg/kg, n=5
[8] = male SD rats, single s.c. 100.0 mg/kg, n=5

With CC[C@H](C)[C@H](NC(=O)[C@H](CO)NC(=O)CNC(=O)[C@H](CC(C)C)NC(=O)[C@@H](NC(=O)CNC(=O)[C@H](Cc1ccccc1)NC(=O)[C@H](CC(C)C)NC(=O)CN)C(C)C)C(=O)N[C@@H](C)C(=O)N[C@@H](CCCCN)C(=O)N[C@@H](Cc1c[nH]cn1)C(=O)N[C@H](C(=O)N[C@@H](CC(C)C)C(=O)N1CCC[C@H]1C(=O)N[C@@H](Cc1c[nH]cn1)C(=O)N[C@H](C(=O)N[C@H](C(=O)N1CCC[C@H]1C(=O)N[C@H](C(=O)N[C@H](C(=O)N[C@@H](C)C(=O)N[C@@H](CCC(=O)O)C(=O)N[C@@H](CCCCN)C(=O)N[C@@H](CC(C)C)C(N)=O)[C@@H](C)CC)C(C)C)C(C)C)C(C)C)C(C)C [F3, Caerin 1.9] (H-GLFGVLGSIAKHVLPHVVPVIAEKL-NH2) the “ABBASO (basophils)” value [1] was 0.01 ± 0 10^9/L, the “ABEOS (eosinophils)” value [1] was 0.16 ± 0.07 10^9/L and the “ABLYMP (lymphocytes)” value [1] was 7.64 ± 1.61 10^9/L. The “ABMONO (monocytes)” value [1] was 0.23 ± 0.08 10^9/L, the “ABNEUT (neutrophils)” value [1] was 2.53 ± 0.45 10^9/L and the ABRETIC [1] was 273.87 ± 31.75 10^9/L. It also gave an APTT [1] of 14.9 ± 0.28 s, an HCT [1] of 38.2 ± 1.34% and an HGB [1] of 11.62 ± 0.50 g/dL. The MCH [1] was 19.25 ± 0.69 pg, the MCHC [1] was 30.4 ± 0.46 g/dL and the MCV [1] was 63.38 ± 2.38 fL. For the same compound, the MPV [1] was 8.58 ± 0.42 fL, the PLT [1] was 1357.67 ± 169.65 10^9/L and the PT [1] was 20.45 ± 1.16 s. The RBC [1] was 6.04 ± 0.37 10^12/L, the WBC [1] was 10.67 ± 1.900 10^9/L and the “ABBASO (basophils)” value [2] was 0.006 ± 0.005 10^9/L. The “ABEOS (eosinophils)” value [2] was 0.072 ± 0.034 10^9/L, the “ABLYMP (lymphocytes)” value [2] was 5.956 ± 2.336 10^9/L and the “ABMONO (monocytes)” value [2] was 0.228 ± 0.234 10^9/L. The “ABNEUT (neutrophils)” value [2] was 1.71 ± 1.516 10^9/L, the ABRETIC [2] was 226.5 ± 33.41 10^9/L and the APTT [2] was 16.94 ± 1.15 s. The HCT [2] was 45.34 ± 3.13%, the HGB [2] was 14.44 ± 1.06 g/dL and the MCH [2] was 19.06 ± 0.27 pg. It also gave an MCHC [2] of 31.82 ± 0.47 g/dL, an MCV [2] of 59.86 ± 0.56 fL and an MPV [2] of 9.02 ± 0.30 fL. For the same compound, the PLT [2] was 1081.6 ± 83.2 10^9/L, the PT [2] was 20.06 ± 0.75 s and the RBC [2] was 7.584 ± 0.568 10^12/L. The WBC [2] was 8.022 ± 3.840 10^9/L, the “ABBASO (basophils)” value [3] was 0.01 ± 0.007 10^9/L and the “ABEOS (eosinophils)” value [3] was 0.072 ± 0.032 10^9/L. The “ABLYMP (lymphocytes)” value [3] was 6.526 ± 1.92 10^9/L, the “ABMONO (monocytes)” value [3] was 0.136 ± 0.034 10^9/L and the “ABNEUT (neutrophils)” value [3] was 1.128 ± 0.308 10^9/L. The ABRETIC [3] was 192.02 ± 21.07 10^9/L, the APTT [3] was 18.24 ± 1.36 s and the HCT [3] was 46.98 ± 1.22%. It also gave an HGB [3] of 14.9 ± 0.29 g/dL, an MCH [3] of 18.78 ± 0.75 pg and an MCHC [3] of 31.76 ± 0.46 g/dL. The MCV [3] was 59.1 ± 1.71 fL, the MPV [3] was 9.28 ± 0.20 fL and the PLT [3] was 1004.4 ± 93.7 10^9/L. For the same compound, the PT [3] was 19.44 ± 0.70 s, the RBC [3] was 7.954 ± 0.424 10^12/L and the WBC [3] was 7.922 ± 1.865 10^9/L. For the same compound, the “ABBASO (basophils)” value [4] was 0.008 ± 0.004 10^9/L, the “ABEOS (eosinophils)” value [4] was 0.06 ± 0.031 10^9/L and the “ABLYMP (lymphocytes)” value [4] was 5.886 ± 1.807 10^9/L. For the same compound, the “ABMONO (monocytes)” value [4] was 0.142 ± 0.094 10^9/L, the “ABNEUT (neutrophils)” value [4] was 1.148 ± 0.434 10^9/L and the ABRETIC [4] was 215.84 ± 21.41 10^9/L. The APTT [4] was 17.02 ± 1.47 s, the HCT [4] was 47.16 ± 1.49% and the HGB [4] was 14.96 ± 0.47 g/dL. The MCH [4] was 18.64 ± 1 pg, the MCV [4] was 58.8 ± 2.76 fL and the MPV [4] was 9 ± 0.19 fL. The PLT [4] was 987 ± 86.1 10^9/L, the PT [4] was 19.72 ± 0.50 s and the RBC [4] was 8.042 ± 0.561 10^12/L. For the same compound, the WBC [4] was 7.28 ± 2.163 10^9/L, the “ABBASO (basophils)” value [5] was 0.01 ± 0.01 10^9/L and the “ABEOS (eosinophils)” value [5] was 0.17 ± 0.06 10^9/L. The “ABLYMP (lymphocytes)” value [5] was 10.1 ± 2.26 10^9/L, the “ABMONO (monocytes)” value [5] was 0.34 ± 0.09 10^9/L and the “ABNEUT (neutrophils)” value [5] was 2.43 ± 1.39 10^9/L. For the same compound, the ABRETIC [5] was 338.6 ± 20.2 10^9/L, the APTT [5] was 16.2 ± 1.82 s and the HCT [5] was 42.18 ± 0.92%. The HGB [5] was 12.68 ± 0.34 g/dL, the MCH [5] was 18.28 ± 0.56 pg and the MCHC [5] was 30.08 ± 0.52 g/dL. For the same compound, the MCV [5] was 60.78 ± 1.44 fL, the MPV [5] was 9.05 ± 0.36 fL and the PLT [5] was 1421.5 ± 225.3 10^9/L. The PT [5] was 20.87 ± 1.2 s, the RBC [5] was 6.94 ± 0.18 10^12/L and the WBC [5] was 13.19 ± 3.49 10^9/L. For the same compound, the “ABBASO (basophils)” value [6] was 0.005 ± 0.006 10^9/L, the “ABEOS (eosinophils)” value [6] was 0.088 ± 0.013 10^9/L and the “ABLYMP (lymphocytes)” value [6] was 7.695 ± 0.12 10^9/L. The “ABMONO (monocytes)” value [6] was 0.283 ± 0.124 10^9/L, the “ABNEUT (neutrophils)” value [6] was 1.185 ± 0.375 10^9/L and the ABRETIC [6] was 250.78 ± 19.32 10^9/L. It also gave an APTT [6] of 17.44 ± 0.85 s, an HCT [6] of 48.4 ± 1.29% and an HGB [6] of 15.1 ± 0.41 g/dL. The MCH [6] was 18.63 ± 1.63 pg, the MCHC [6] was 31.23 ± 0.69 g/dL and the MCV [6] was 59.58 ± 4.36 fL. The MPV [6] was 9.35 ± 0.33 fL, the PLT [6] was 862.8 ± 95.1 10^9/L and the PT [6] was 19.76 ± 0.92 s. The RBC [6] was 8.163 ± 0.679 10^12/L, the WBC [6] was 9.315 ± 0.344 10^9/L and the “ABBASO (basophils)” value [7] was 0.012 ± 0.008 10^9/L. The “ABEOS (eosinophils)” value [7] was 0.086 ± 0.059 10^9/L, the “ABLYMP (lymphocytes)” value [7] was 10.178 ± 2.676 10^9/L and the “ABMONO (monocytes)” value [7] was 0.262 ± 0.043 10^9/L. The “ABNEUT (neutrophils)” value [7] was 1.498 ± 0.573 10^9/L, the ABRETIC [7] was 252.72 ± 25.77 10^9/L and the APTT [7] was 17.86 ± 1.84 s. For the same compound, the HCT [7] was 47.5 ± 1.89%, the HGB [7] was 14.72 ± 0.59 g/dL and the MCH [7] was 18.6 ± 0.49 pg. The MCHC [7] was 30.98 ± 0.24 g/dL, the MCV [7] was 60.06 ± 2.02 fL and the PLT [7] was 878 ± 118.5 10^9/L. The PT [7] was 19.88 ± 0.94 s, the RBC [7] was 7.916 ± 0.383 10^12/L and the WBC [7] was 12.12 ± 2.998 10^9/L. The “ABBASO (basophils)” value [8] was 0.01 ± 0.01 10^9/L, the “ABEOS (eosinophils)” value [8] was 0.11 ± 0.062 10^9/L and the “ABLYMP (lymphocytes)” value [8] was 8.444 ± 1.168 10^9/L. For the same compound, the “ABMONO (monocytes)” value [8] was 0.27 ± 0.06 10^9/L, the “ABNEUT (neutrophils)” value [8] was 1.742 ± 0.58 10^9/L and the ABRETIC [8] was 270.82 ± 25.29 10^9/L. It also gave an APTT [8] of 17.34 ± 1.96 s, an HCT [8] of 47.62 ± 1.59% and an HGB [8] of 14.6 ± 0.55 g/dL. It also gave an MCH [8] of 18.86 ± 0.15 pg, an MCV [8] of 61.52 ± 0.65 fL and an MPV [8] of 9.26 ± 0.24 fL. The PLT [8] was 985.4 ± 65 10^9/L, the PT [8] was 20.14 ± 0.95 s and the RBC [8] was 7.742 ± 0.232 10^12/L. For the same compound, the WBC [8] was 10.654 ± 1.291 10^9/L.
